Experimental data taken from patent US20260191968A1, “PROTAC DEGRADERS OF MLLT1 AND/OR MLLT3” (DARK BLUE THERAPEUTICS LTD, priority 2024, published 2026).

Molecular target: T1, MLLT1 (Homo sapiens, UniProt Q03111)
T1 construct: host or cells: MV4-11
T1 sequence (Q03111 1-559): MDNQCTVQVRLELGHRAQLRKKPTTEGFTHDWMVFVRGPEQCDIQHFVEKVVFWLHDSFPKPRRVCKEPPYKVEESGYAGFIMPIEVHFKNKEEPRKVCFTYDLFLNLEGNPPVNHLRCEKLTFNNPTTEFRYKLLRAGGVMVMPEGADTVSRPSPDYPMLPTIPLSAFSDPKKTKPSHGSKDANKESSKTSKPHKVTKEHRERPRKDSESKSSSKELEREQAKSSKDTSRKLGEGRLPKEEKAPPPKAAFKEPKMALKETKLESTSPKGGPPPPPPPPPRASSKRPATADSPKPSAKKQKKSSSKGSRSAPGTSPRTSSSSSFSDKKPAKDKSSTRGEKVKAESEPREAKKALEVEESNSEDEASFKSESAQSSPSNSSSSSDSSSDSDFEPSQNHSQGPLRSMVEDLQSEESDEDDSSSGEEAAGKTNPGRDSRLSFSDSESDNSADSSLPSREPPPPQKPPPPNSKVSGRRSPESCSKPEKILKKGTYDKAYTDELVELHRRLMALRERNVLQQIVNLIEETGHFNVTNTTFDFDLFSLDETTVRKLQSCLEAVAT
Assay: MLLT1 degradation assay in MV4-11 cells (JESS chemiluminescent detection), three concentrations, 24 h
Assay type: cell-based
Details: with respect to DMSO control
How it was run: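 MV4-11 cells treated 24 h at 37° C, 5% CO2 with 1000, 100 and 10 nM compound (0.1% DMSO final). MLLT1 quantified by automated capillary chemiluminescent immunodetection; band peak area expressed as % degradation relative to DMSO control.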

Row | Structure (SMILES) | MLLT1% Degradation @ 0.01 μM | MLLT1% Degradation @ 0.1 μM | MLLT1% Degradation @ 1 μM
1 | CN1CCC[C@@H]1c1[nH]c2cc(NC(=O)c3ccc(CCCC4CCN(c5cccc6c5CN([C@H]5CCC(=O)NC5=O)C6=O)CC4)cc3)ncc2c1Cl [Example 233, N-(3-chloro-2-((R)-1-methylpyrrolidin-2-yl)-1H-pyrrolo[3,2-c]pyridin-6-yl)-4-(3-(1-(2-((S)-2,6-dioxopiperidin-3-yl)-1-oxoisoindolin-4-yl)piperidin-4-yl)propyl)benzamide] | A (Category A: A ≥ 75% degradation) | A (Category A: A ≥ 75% degradation) | A (Category A: A ≥ 75% degradation)
2 | Cc1cc(CCOc2ccc(C(=O)Nc3cc4[nH]c([C@H]5CCCN5C)cc4cn3)c(F)c2)ccc1-c1cccc2c1CN(C1CCC(=O)NC1=O)C2=O (stereo partly drawn) [Example 208, 4-(4-(2-(2,6-dioxopiperidin-3-yl)-1-oxoisoindolin-4-yl)-3-methylphenethoxy)-2-fluoro-N-(2-((R)-1-methylpyrrolidin-2-yl)-1H-pyrrolo[3,2-c]pyridin-6-yl)benzamide] | A (Category A: A ≥ 75% degradation) | A (Category A: A ≥ 75% degradation) | A (Category A: A ≥ 75% degradation)
3 | CN1CCC[C@@H]1c1cc2cnc(NC(=O)c3ccc(CCCN4CCN(c5cccc6c5C(=O)N(C5CCC(=O)NC5=O)C6=O)CC4)cc3)cc2[nH]1 (stereo partly drawn) [Example 130, 4-(3-(4-(2-(2,6-dioxopiperidin-3-yl)-1,3-dioxoisoindolin-4-yl)piperazin-1-yl)propyl)-N-(2-((R)-1-methylpyrrolidin-2-yl)-1H-pyrrolo[3,2-c]pyridin-6-yl)benzamide] | B (Category B: 50% ≤ B < 75% degradation) | A (Category A: A ≥ 75% degradation) | A (Category A: A ≥ 75% degradation)
4 | CN1CCC[C@@H]1c1cc2cnc(NC(=O)c3ccc(CCCC4CCN(c5cccc6c5C(=O)N(C5CCC(=O)NC5=O)C6=O)CC4)cc3)cc2[nH]1 (stereo partly drawn) [Example 128, 4-(3-(1-(2-(2,6-dioxopiperidin-3-yl)-1,3-dioxoisoindolin-4-yl)piperidin-4-yl)propyl)-N-(2-((R)-1-methylpyrrolidin-2-yl)-1H-pyrrolo[3,2-c]pyridin-6-yl)benzamide] | C (Category C: 25% ≤ C < 50% degradation) | A (Category A: A ≥ 75% degradation) | A (Category A: A ≥ 75% degradation)
5 | CN1CCC[C@@H]1c1cc2cnc(NC(=O)c3ccc(CCCC#Cc4ccc(C(=O)N[C@H]5CCC(=O)NC5=O)nc4)cc3)cc2[nH]1 [Example 11, N—((S)-2,6-dioxopiperidin-3-yl)-5-(5-(4-((2-((R)-1-methylpyrrolidin-2-yl)-1H-pyrrolo[3,2-c]pyridin-6-yl)carbamoyl)phenyl)pent-1-yn-1-yl)picolinamide] | D (Category D: D < 25% degradation) | C (Category C: 25% ≤ C < 50% degradation) | B (Category B: 50% ≤ B < 75% degradation)
6 | CN1CCC[C@@H]1c1cc2cnc(NC(=O)c3ccc(CCCCC#Cc4cccc5c4CN(C4CCC(=O)NC4=O)C5=O)nc3)cc2[nH]1 (stereo partly drawn) [Example 10, 6-(6-(2-(2,6-dioxopiperidin-3-yl)-1-oxoisoindolin-4-yl)hex-5-yn-1-yl)-N-(2-((R)-1-methylpyrrolidin-2-yl)-1H-pyrrolo[3,2-c]pyridin-6-yl) nicotinamide] | A (Category A: A ≥ 75% degradation) | A (Category A: A ≥ 75% degradation) | B (Category B: 50% ≤ B < 75% degradation)
7 | CN1CCC[C@@H]1c1cc2cnc(NC(=O)c3ccc(N4CCC(N5CCN(c6cccc7c6C(=O)N(C6CCC(=O)NC6=O)C7=O)CC5)CC4)nc3)cc2[nH]1 (stereo partly drawn) [Example 64, 6-(4-(4-(2-(2,6-dioxopiperidin-3-yl)-1,3-dioxoisoindolin-4-yl)piperazin-1-yl)piperidin-1-yl)-N-(2-((R)-1-methylpyrrolidin-2-yl)-1H-pyrrolo[3,2-c]pyridin-6-yl)nicotinamide] | B (Category B: 50% ≤ B < 75% degradation) | B (Category B: 50% ≤ B < 75% degradation) | A (Category A: A ≥ 75% degradation)
8 | CN1CCC[C@@H]1c1cc2cnc(NC(=O)c3cccc(OCCCCCCCC#Cc4cccc5c4C(=O)N(C4CCC(=O)NC4=O)C5=O)c3)cc2[nH]1 (stereo partly drawn) [Example 26, 3-((9-(2-(2,6-dioxopiperidin-3-yl)-1,3-dioxoisoindolin-4-yl)non-8-yn-1-yl)oxy)-N-(2-((R)-1-methylpyrrolidin-2-yl)-1H-pyrrolo[3,2-c]pyridin-6-yl)benzamide] | D (Category D: D < 25% degradation) | D (Category D: D < 25% degradation) | C (Category C: 25% ≤ C < 50% degradation)
9 | Cc1cc(OCCC2CCN(c3cccc4c3CN(C3CCC(=O)NC3=O)C4=O)CC2)ccc1C(=O)Nc1cc2[nH]c([C@H]3CCCN3C)cc2cn1 (stereo partly drawn) [Example 204, 4-(2-(1-(2-(2,6-dioxopiperidin-3-yl)-1-oxoisoindolin-4-yl)piperidin-4-yl)ethoxy)-2-methyl-N-(2-((R)-1-methylpyrrolidin-2-yl)-1H-pyrrolo[3,2-c]pyridin-6-yl)benzamide] | C (Category C: 25% ≤ C < 50% degradation) | B (Category B: 50% ≤ B < 75% degradation) | B (Category B: 50% ≤ B < 75% degradation)
10 | CN1CCC[C@@H]1c1cc2cnc(NC(=O)c3ccc(C4CCN(c5cccc6c5C(=O)N(C5CCC(=O)NC5=O)C6=O)CC4)cc3)cc2[nH]1 (stereo partly drawn) [Example 15, 4-(1-(2-(2,6-dioxopiperidin-3-yl)-1,3-dioxoisoindolin-4-yl)piperidin-4-yl)-N-(2-((R)-1-methylpyrrolidin-2-yl)-1H-pyrrolo[3,2-c]pyridin-6-yl)benzamide] | B (Category B: 50% ≤ B < 75% degradation) | A (Category A: A ≥ 75% degradation) | B (Category B: 50% ≤ B < 75% degradation)
11 | CN1CCC[C@@H]1c1cc2cnc(NC(=O)CCCCCCCCNc3cccc4c3C(=O)N(C3CCC(=O)NC3=O)C4=O)cc2[nH]1 (stereo partly drawn) [Example 30, 9-{[2-(2,6-dioxopiperidin-3-yl)-1,3-dioxoisoindol-4-yl]amino}-N-{2-[(2R)-1-methylpyrrolidin-2-yl]-1H-pyrrolo[3,2-c]pyridin-6-yl}nonanamide] | C (Category C: 25% ≤ C < 50% degradation) | B (Category B: 50% ≤ B < 75% degradation) | A (Category A: A ≥ 75% degradation)
12 | CN1CCC[C@@H]1c1cc2cnc(NC(=O)c3ccc(N4CCC(c5ccc(-c6cccc7c6C(=O)N(C6CCC(=O)NC6=O)C7=O)cc5)CC4)nc3)cc2[nH]1 (stereo partly drawn) [Example 178, 6-(4-(4-(2-(2,6-dioxopiperidin-3-yl)-1,3-dioxoisoindolin-4-yl)phenyl)piperidin-1-yl)-N-(2-((R)-1-methylpyrrolidin-2-yl)-1H-pyrrolo[3,2-c]pyridin-6-yl)nicotinamide] | C (Category C: 25% ≤ C < 50% degradation) | B (Category B: 50% ≤ B < 75% degradation) | B (Category B: 50% ≤ B < 75% degradation)
13 | CN1CCC[C@@H]1c1cc2cnc(NC(=O)c3ccc(OCC#Cc4cccc5c4CN(C4CCC(=O)NC4=O)C5=O)c(Cl)c3)cc2[nH]1 (stereo partly drawn) [Example 23, 3-chloro-4-((3-(2-(2,6-dioxopiperidin-3-yl)-1-oxoisoindolin-4-yl)prop-2-yn-1-yl)oxy)-N-(2-((R)-1-methylpyrrolidin-2-yl)-1H-pyrrolo[3,2-c]pyridin-6-yl)benzamide] | C (Category C: 25% ≤ C < 50% degradation) | C (Category C: 25% ≤ C < 50% degradation) | C (Category C: 25% ≤ C < 50% degradation)
14 | CN1CCC[C@@H]1c1cc2cnc(NC(=O)c3cccc(N4CCN(CC5CCN(c6ccc7c(c6)CN(C6CCC(=O)NC6=O)C7=O)CC5)CC4)c3)cc2[nH]1 (stereo partly drawn) [Example 192, 3-(4-((1-(2-(2,6-dioxopiperidin-3-yl)-1-oxoisoindolin-5-yl)piperidin-4-yl)methyl)piperazin-1-yl)-N-(2-((R)-1-methylpyrrolidin-2-yl)-1H-pyrrolo[3,2-c]pyridin-6-yl)benzamide] | B (Category B: 50% ≤ B < 75% degradation) | B (Category B: 50% ≤ B < 75% degradation) | C (Category C: 25% ≤ C < 50% degradation)
